{"source": "paper PMC12013614", "about": "(RSC Advances, 2025)", "key": {"MDA-231 cells": {"test_system": "MDA-231 cells", "assay": "Cell migration and wound healing assay", "assay_type": "cell-based", "conditions": "11 μM (0.5 IC50), untreated control 58.95"}, "BAX": {"test_system": "BAX", "assay": "qRT-PCR gene expression, BAX", "assay_type": "cell-based", "conditions": "MDA-231 cells; 21.68 μM; control set to 1; mean ± SEM"}, "Bcl-2": {"test_system": "Bcl-2", "assay": "qRT-PCR gene expression, Bcl-2", "assay_type": "cell-based", "conditions": "MDA-231 cells; 21.68 μM; control set to 1; mean ± SEM"}, "VEGFR-2": {"target": "VEGFR-2 (Homo sapiens, UniProt P35968)", "sequence (P35968 20-1356)": "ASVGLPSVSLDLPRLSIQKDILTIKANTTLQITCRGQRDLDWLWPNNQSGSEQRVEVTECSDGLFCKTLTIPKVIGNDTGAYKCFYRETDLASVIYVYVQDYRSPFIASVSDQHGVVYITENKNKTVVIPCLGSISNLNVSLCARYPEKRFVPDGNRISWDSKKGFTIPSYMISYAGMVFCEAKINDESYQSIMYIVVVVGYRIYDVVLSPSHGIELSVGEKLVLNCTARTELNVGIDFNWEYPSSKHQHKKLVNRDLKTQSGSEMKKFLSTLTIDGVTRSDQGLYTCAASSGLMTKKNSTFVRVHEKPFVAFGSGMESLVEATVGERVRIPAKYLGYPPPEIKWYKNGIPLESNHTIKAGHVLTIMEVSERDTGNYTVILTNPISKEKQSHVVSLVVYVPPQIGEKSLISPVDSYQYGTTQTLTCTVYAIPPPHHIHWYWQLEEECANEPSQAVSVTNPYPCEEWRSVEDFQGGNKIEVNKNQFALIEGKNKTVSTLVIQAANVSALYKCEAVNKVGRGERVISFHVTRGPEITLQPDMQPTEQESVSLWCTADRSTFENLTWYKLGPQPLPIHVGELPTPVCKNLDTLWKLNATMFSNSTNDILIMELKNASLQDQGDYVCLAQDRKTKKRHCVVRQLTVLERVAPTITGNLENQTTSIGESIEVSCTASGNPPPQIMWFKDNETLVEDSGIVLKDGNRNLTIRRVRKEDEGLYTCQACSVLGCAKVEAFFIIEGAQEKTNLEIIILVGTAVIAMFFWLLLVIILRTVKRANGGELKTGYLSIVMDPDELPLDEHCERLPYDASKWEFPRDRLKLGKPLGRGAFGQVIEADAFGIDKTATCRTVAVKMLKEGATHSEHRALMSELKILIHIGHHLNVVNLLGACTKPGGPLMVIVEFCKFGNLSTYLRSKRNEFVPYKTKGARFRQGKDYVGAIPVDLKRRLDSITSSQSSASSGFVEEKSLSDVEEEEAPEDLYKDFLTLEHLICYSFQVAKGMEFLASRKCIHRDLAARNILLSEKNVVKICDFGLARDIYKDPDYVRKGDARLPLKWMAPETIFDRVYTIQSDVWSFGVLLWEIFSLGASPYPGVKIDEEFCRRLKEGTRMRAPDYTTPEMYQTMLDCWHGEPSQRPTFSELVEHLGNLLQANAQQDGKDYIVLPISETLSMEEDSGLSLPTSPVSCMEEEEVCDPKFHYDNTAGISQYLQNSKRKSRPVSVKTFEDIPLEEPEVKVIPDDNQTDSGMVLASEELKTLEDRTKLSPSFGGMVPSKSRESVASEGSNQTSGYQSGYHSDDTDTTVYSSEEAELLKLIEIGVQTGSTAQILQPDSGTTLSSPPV", "assay": "In vitro VEGFR-2 kinase inhibition", "assay_type": "biochemical"}, "caspase-8": {"test_system": "caspase-8", "assay": "qRT-PCR gene expression, caspase-8", "assay_type": "cell-based", "conditions": "MDA-231 cells; 21.68 μM; control set to 1; mean ± SEM"}, "BAX/Bcl-2 ratio": {"test_system": "BAX/Bcl-2 ratio", "assay_type": "cell-based", "conditions": "MDA-231 cells; 21.68 μM; control set to 1"}, "MDA-MB-231 cells [1]": {"test_system": "MDA-MB-231 cells", "assay": "Apoptosis analysis, Annexin V-FITC/PI flow cytometry", "assay_type": "cell-based"}, "MDA-MB-231 cells [2]": {"test_system": "MDA-MB-231 cells", "assay": "Cell cycle analysis, PI flow cytometry", "assay_type": "cell-based", "conditions": "21.68 µM, 48 h"}, "caspase-9": {"test_system": "caspase-9", "assay": "qRT-PCR gene expression, caspase-9", "assay_type": "cell-based", "conditions": "MDA-231 cells; 21.68 μM; control set to 1; mean ± SEM"}}, "note": "Marks after values point to notes of the source that are not given here."}
{"molecule": "COc1cccc(NC(=O)Nc2ccc(Oc3nc4ccccc4n4cnnc34)cc2)c1", "note": "[11d, 1-(4-([1,2,4]Triazolo[4,3-a]quinoxalin-4-yloxy)phenyl)-3-(3-methoxyphenyl)urea]", "values": [{"measurement": "Quantitative closure (%) for scratched assay after 48 h", "setting": "MDA-231 cells", "result": 27.51, "unit": "%"}, {"measurement": "Gene expression (fold change), BAX", "setting": "BAX", "result": "5.48 ± 0.45 ^a fold change"}, {"measurement": "Gene expression (fold change), Bcl-2", "setting": "Bcl-2", "result": "0.34 ± 0.01 ^a fold change"}, {"measurement": "IC50", "setting": "VEGFR-2", "result": "0.0623 ± 0.00277", "unit": "µM"}, {"measurement": "Gene expression (fold change), Caspases-8", "setting": "caspase-8", "result": "4.15 ± 0.48 ^a fold change"}, {"measurement": "Gene expression (fold change), BAX/Bcl-2 ratio", "setting": "BAX/Bcl-2 ratio", "result": "16.11 ± 1.01", "unit": "fold change"}, {"measurement": "viability at 21.68 µM", "setting": "MDA-MB-231 cells [1]; Homo sapiens, MDA-MB-231, 48 h, read-out: Viable (left bottom)", "result": 20.2, "unit": "%"}, {"measurement": "Necrosis (left top)", "setting": "MDA-MB-231 cells [1]; MDA-MB-231, 21.68 µM, 48 h, untreated 0.32", "result": "1.91 ^a %"}, {"measurement": "Apoptosis, Late (right top)", "setting": "MDA-MB-231 cells [1]; MDA-MB-231, 21.68 µM, 48 h, untreated 0.45", "result": "31.49 ^a %"}, {"measurement": "Apoptosis, Early (right bottom)", "setting": "MDA-MB-231 cells [1]; MDA-MB-231, 21.68 µM, 48 h, untreated 3.84", "result": "46.43 ^a %"}, {"measurement": "Cell cycle distribution (%), % G2/M", "setting": "MDA-MB-231 cells [2]; untreated 10.59", "result": "3.74 ^a %"}, {"measurement": "Cell cycle distribution (%), % sub-G1", "setting": "MDA-MB-231 cells [2]; untreated 19.48", "result": 15.75, "unit": "%"}, {"measurement": "Cell cycle distribution (%), % S", "setting": "MDA-MB-231 cells [2]; untreated 24.95", "result": "16.45 ^a %"}, {"measurement": "Cell cycle distribution (%), % G1", "setting": "MDA-MB-231 cells [2]; untreated 44.98", "result": "64.06 ^a %"}, {"measurement": "Gene expression (fold change), Caspases-9", "setting": "caspase-9", "result": "5.58 ± 0.40 ^a fold change"}]}
